Data set [1] deals with T1, glycine-binding site of the NMDA receptor channel (Rattus norvegicus, UniProt P35439).
T1 construct: from tissue; host or cells: rat brain cortex and hippocampus membrane homogenate (male Wistar rats, Charles River)
The experiment in a line: Receptor binding study, displacement of (3H)-MDL 105.519 in rat brain membrane homogenates. To be noted: rat cortex and hippocampus membrane homogenate; (3H)-MDL 105.519 radioligand; Ki from IC50 by Cheng-Prusoff. The procedure: The studies for determination of the affinity of the substituted 1,5-dihydropyrrol-2-one derivatives of the general formula I for the glycine-binding site of the NMDA receptor channel were carried out on brain membrane homogenates (homogenate of the cortex and hippocampus area from the brain of male rats, Wistar strain, Charles River, WIGA GmbH, Sulzbach, Germany) by the method of Baron B. M. et al, J. Pharmacol. Exp. Ter., vol. 279, pp. 62-68 (1996).
Specifically, the cortex and hippocampus were exposed from freshly removed rat brains and homogenized in 5 mmol/l TRIS-acetate buffer, 0.32 mol/l sucrose pH 7.4 (10 ml/g fresh weight) with a Potter homogenizer (Braun, Melsungen, Germany, 10 plunger strokes at 500 revolutions per minute (rpm)), while cooling with ice, and the mixture was then centrifuged for 10 minutes at 1,000 g and 4° C. The first supernatant was collected and the sediment was homogenized again with 5 mmol/l TRIS-acetate buffer, 0.32 mol/l sucrose pH 7.4 (5 ml/g of original fresh weight of rat brain cortex and hippocampus) with the Potter homogenizer (10 plunger strokes at 500 rpm), while cooling with ice, and the mixture was centrifuged for 10 minutes at 1,000 g and 4° C. The resulting supernatant was combined with the supernatant from the first centrifugation and the mixture was centrifuged at 17,000 g for 20 minutes at 4° C. The supernatant after this centrifugation was discarded and the membrane sediment was taken up in 5 mmol/l TRIS-acetate buffer pH 8.0 (20 ml/g original fresh weight) and the mixture was homogenized with 10 plunger strokes at 500 rpm.
The membrane homogenate was then incubated for 1 hour at 4° C. and centrifuged for 30 minutes at 50,000 g and 4° C. The supernatant was discarded and the centrifuge tube with the membrane sediment was closed with Parafilm and frozen for 24 hours at −20° C. On the following day the membrane sediment was thawed and taken up in ice-cold 5 mmol/l TRIS-acetate buffer, 0.1% saponin (weight/volume) pH 7.0 (10 ml/g original fresh weight) and the mixture was homogenized with 10 plunger strokes at 500 rpm and then centrifuged for 20 minutes at 50,000 g and 4° C. The resulting supernatant was discarded and the sediment was taken up in a small volume of 5 mmol/l TRIS-acetate buffer pH 7.0 (approx. 2 ml/g original fresh weight) and the mixture was homogenized again with 10 plunger strokes at 500 rpm. After the protein content had been determined, the membrane homogenate was adjusted to a protein concentration of 10 mg protein/ml with 5 mmol/l TRIS-acetate buffer pH 7.0 and frozen in aliquots until the analysis was carried out.
For the receptor binding test, aliquots were thawed, diluted 1:10 with 5 mmol/l TRIS-acetate buffer pH 7.0 and homogenized with the Potter homogenizer with 10 plunger strokes at 500 rpm, while cooling with ice, and the mixture was centrifuged for 60 minutes at 55,000 g at 4° C. The supernatant was decanted and the membrane sediment was adjusted to a protein concentration of 1 mg/ml with ice-cold 50 mmol/l TRIS-acetate buffer pH 7.0 and the mixture was homogenized again with 10 plunger strokes at 500 rpm and kept in suspension while stirring on a magnetic stirrer in an ice-bath. In each case 100 μl of this membrane homogenate per 1 ml batch were employed in the receptor binding test (0.1 mg protein/ml in the final batch).
In the binding test, 50 mmol/l TRIS-acetate buffer pH 7.0 were employed as the buffer and […] (^3H)-MDL 105.519 (Baron B. M. at al, J. Pharmacol. Exp. Ther., vol 279, pp. 62-68 (1996)) was employed as the radioactive ligand. The content of non-specific binding was determined in the presence of 1 mmol/l glycine.
In further batches, the compounds according to the invention were added in concentration series and the displacement of the radioactive ligand from its specific binding to the glycine binding site of the NMDA receptor channel was determined. […]

The subject of data set [2] is formalin-induced nociceptive reaction (licking and biting of the paw). The experiment in a line: Formalin test in mice, second (late) phase. To be noted: male NMRI mice. The data set is classed as in vivo. The procedure: The studies for determination of the antinociceptive action of substituted 1,5-dihydropyrrol-2-one derivatives according to the invention were carried out in the formalin test in male albino mice (NMRI, 25-35 g, Iffa Credo, Belgium).
In the formalin test, a distinction is made between the first (early) phase (0-15 min after formalin injection) and the second (late) phase (15-60 min after formalin injection) (D. Dubuisson et al, Pain 4, 161-174 (1977)). The early phase represents a model for acute pain, as a direct reaction to the formalin injection, while the late phase is regarded as a model for persistent (chronic) pain (T. J. Coderre et al, Pain, vol. 52, pp. 259-285 (1993).
The compounds according to the invention were investigated in the second phase of the formalin test to obtain information on substance actions on chronic/inflammatory pain.
By a single subcutaneous formalin injection (20 μl, 1% aqueous solution) into the dorsal side of the right hind paw of freely mobile test animals, a nociceptive reaction was induced, which manifests itself in significant licking and biting of the paw affected.
For the investigation period in the second (late) phase of the formalin test, the nociceptive behaviour was recorded continuously by observing the animals. […] After injection of substances which have an antinociceptive action in the formalin test, the modes of behaviour described for the animals are reduced, and possibly even eliminated.
In a manner corresponding to the substance tests, in which the animals received an injection of the test substance before formalin, the vehicle, i.e. solvent (e.g. 0.9% NaCl solution), was injected into the control animals before the administration of formalin. The behaviour of the animals after administration of the substance (10 mice per substance dosage) was compared with a control group (10 mice).
On the basis of the quantification of the pain properties, the action of the substance in the formalin test was determined as a change from the control in per cent. The ED50 calculations were made by means of regression analysis. […]

On to `O=C1NC(=Cc2ccccc2)C(NCc2ccccc2)=C1[N+](=O)[O-]` [Example 9, 4-Benzylamino-5-benzylidene-3-nitro-1,5-dihydropyrrol-2-one], for which the melting point (in general, the temperature, or range, at which the solid turns liquid) worked out at 218 °C. The Ki (commonly a dissociation constant, usually derived from enzyme kinetics or from competition with a known ligand) in data set [1] amounted to 5 µM.
Compound `CNC1=C(N=O)C(=O)NC1=Cc1ccccc1` [Example 5, 5-Benzylidene-4-methylamino-3-nitroso-1,5-dihydropyrrol-2-one] displayed an inhibitory constant (Ki) in data set [1] of 60 µM.
The compound `CNC1=C([N+](=O)[O-])C(=O)NC1=Cc1ccccc1` [Example 10, 5-Benzylidene-4-methylamino-3-nitro-1,5-dihydropyrrol-2-one] returned a melting point of 238 °C. The compound also displayed an inhibition constant Ki in data set [1] of 3 µM.
On to `O=C1NC(=Cc2ccccc2)C(Nc2ccccc2)=C1[N+](=O)[O-]` [Example 8, 5-Benzylidene-3-nitro-4-phenylamino-1,5-dihydropyrrol-2-one], for which the Ki in data set [1] stood at 9 µM.
In the case of `O=NC1=C(O)C(=Cc2ccccc2)NC1=O` [Example 1, 5-Benzylidene-4-hydroxy-3-nitroso-1,5-dihydro-pyrrol-2-one], in data set [2], the “% change with respect to the control at 10 mg/kg” value (“% change” for short) turned out to be 63.9%.
In turn, `NC1=C(N=O)C(=O)NC1=Cc1ccccc1` [Example 6, 4-Amino-5-benzylidene-3-nitroso-1,5-dihydropyrrol-2-one] showed a Ki in data set [1] of 70 µM.
For the compound `NC1=C([N+](=O)[O-])C(=O)NC1=Cc1ccccc1` [Example 11, 4-Amino-5-benzylidene-3-nitro-1,5-dihydropyrrol-2-one], the melting point was greater than 260 °C. Moreover, the Ki in data set [1] worked out at 6 µM.
Take `COC1=C(N=O)C(=O)NC1=Cc1ccccc1` [Example 2, 5-Benzylidene-4-methoxy-3-nitroso-1,5-dihydropyrrol-2-one]: the “% change” value in data set [2] stood at 36.3%.
As for `O=NC1=C(NCc2ccccc2)C(=Cc2ccccc2)NC1=O` [Example 3, 4-Benzylamino-5-benzylidene-3-nitroso-1,5-dihydropyrrol-2-one], affinity in data set [1] was put at a Ki of 68 µM. For the same compound, the “% change” value in data set [2] came out at 47.6%.
Consider `O=NC1=C(Nc2ccccc2)C(=Cc2ccccc2)NC1=O` [Example 4, 5-Benzylidene-3-nitroso-4-phenylamino-1,5-dihydropyrrol-2-one], for which the Ki in data set [1] came out at 72 µM.

The values are drawn from patent US6642267B2, “Substituted 1,5-dihydropyrrol-2-one derivatives active as NMDA receptor antagonists for treatment of states of pain” (Gruenenthal GmbH, priority 1999, dated 2003).
